Results reported in patent publication US6028109A, “Use of agonists of the peroxisome proliferator activated receptor alpha for treating obesity” (Glaxo Wellcome Inc., priority 1996, dated 2000).

Legend:
[1] = molecular target: T1, mPPARα (Mus musculus, UniProt P23204); assay: Transient cotransfection assay, GAL4-PPARα chimera in CV-1 cells (mouse PPARα); type: cell-based; settings: transfection assay
T1 construct: amino acids 174-475 of PPARα; expressed in transfected cells; host or cells: CV-1 cells
T1 sequence (P23204 167-468 limits assumed): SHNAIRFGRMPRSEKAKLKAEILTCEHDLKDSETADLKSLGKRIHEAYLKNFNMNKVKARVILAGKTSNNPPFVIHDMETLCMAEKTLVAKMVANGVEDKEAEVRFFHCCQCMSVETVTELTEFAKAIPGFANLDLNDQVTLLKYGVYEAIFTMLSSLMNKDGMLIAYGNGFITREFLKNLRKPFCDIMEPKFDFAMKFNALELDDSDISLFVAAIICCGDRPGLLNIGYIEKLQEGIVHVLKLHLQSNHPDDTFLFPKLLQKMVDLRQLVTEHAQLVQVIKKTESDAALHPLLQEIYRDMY
Excerpt: (§1) A transient cotransfection assay was used to screen for PPARα activator activity of compounds of formula (I).
(§2) As mammalian cell lines contain endogenous nuclear receptors that can complicate interpretation of the results, we used an established chimera system in which the ligand-binding domain of the PPAR-α was fused to the DNA binding domain of the yeast transcription factor GAL4.The GAL4-PPARα chimera was cotransfected into CV-1 cells with a reporter construct containing five copies of the GAL4 binding site upstream of the thymidine kinase promotor driving secreted placental alkaline phosphatase (SPAP) as reporter.
(§3) GAL4-PPAR chimera and UAS-tk-CAT/SPAP reporters. […]
(§4) Transfection assay; SPAP reporter. […] 16 h later the medium was exchanged to DME medium supplemented with 10% delipidated fetal calf serum and the test compound at a concentration of 10^-5 M. After incubation for an additional 24 h SPAP activity and β-galactosidase activity were measured as previously described (Pfahl et al., 1990).
(§5) Transfection assay: CAT reporter. […] After incubation for an additional 24 h, chloramphenicol acetyl transferase (CAT) activity and β-galactosidase activity were measured as previously described (Pfahl et al., 1990). […]

[2] = system: GST-PPARα; assay: Competition binding for PPARα against the radioligand of Example 2; settings: 100 nM radioligand of Example 2, 1000-fold excess (100 microM) of competitor; no competitor 40,200 cpm bound
Method: a) Binding of the radioligand of Example 2 to PPARα The ligand binding domains of mouse and human PPARα were expressed in E. Coli as fusion proteins with glutathione-S-transferase (GST). DNA encoding the ligand binding domain of mouse and human PPARa was amplified via polymerase chain reaction and inserted in-frame into the bacterial expression vector pGEX-2T (Pharmacia). GST-mPPARα and GST-hPPARa fusion proteins were expressed in BL21(DE3)plysS cells. After a 2 hour induction with 1 mM IPTG, the cells were lysed by freeze/thaw in 1/10 volumes of a buffer containing 50 mM Tris (pH 8), 250 mM KCl, 10 mM DTT, 1 mM PMSF, and 1% Triton X-100. Lysates were clarified by centrifugation for 1 hr at 50,000 x g. 1.5 ml of a 50% glutathione-sepharose bead (Pharmacia)/phosphate buffered saline slurry was added to 10 ml of clarified lysate, the mixture incubated for 30 minutes, and the glutathione-sepharose bead-GST-PPARα complexes were then collected by centrifugation and washed twice in binding buffer containing 50 mM KCl, 10 mM Tris (pH 8), 1 mM DTT. The washed glutathione-sepharose bead-PPARα complexes were resuspended in 0.75 ml binding buffer containing 10% glycerol. […]

[3] = molecular target: T2, hPPARα (Homo sapiens, UniProt Q07869); assay: Transient cotransfection assay, GAL4-PPARα chimera in CV-1 cells (human PPARα); type: cell-based; settings: transfection assay
T2 construct: amino acids 174-475 of PPARα; expressed in transfected cells; host or cells: CV-1 cells
T2 sequence (Q07869 167-468 limits assumed): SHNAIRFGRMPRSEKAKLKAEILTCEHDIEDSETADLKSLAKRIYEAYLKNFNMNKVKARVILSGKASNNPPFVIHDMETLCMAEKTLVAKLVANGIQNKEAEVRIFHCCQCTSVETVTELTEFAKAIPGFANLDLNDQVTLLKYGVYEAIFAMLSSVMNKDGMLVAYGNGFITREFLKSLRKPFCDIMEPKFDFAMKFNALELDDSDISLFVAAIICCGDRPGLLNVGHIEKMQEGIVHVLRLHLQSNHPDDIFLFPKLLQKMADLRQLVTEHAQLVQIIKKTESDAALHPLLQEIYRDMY
Excerpt: as §1, §2, §3, §4, §5

[4] = Change of body weight in hamsters on 1% cholesterol chow, 14 days oral dosing; type: in vivo, Golden Syrian hamsters; settings: for change of body weight (gained): diet-only control gained 23.2 g; for change of body weight (lost): Compound B Test, diet-only control gained 13 g
Method: Male Golden Syrian hamsters (supplied by Charles River), weighing approximately 140-150 g at the start of the study, were subjected to the following dietary regime. On day 0, four groups of animals (n=6/group) were begun on a diet consisting of rodent chow containing 1% cholesterol. Three of the four groups on the cholesterol diet also began oral dosing with Compound A as described in Example 3 ([…]). Compound A was given as a suspension in 5% bicarbonate and 0.5% methyicellulose. The study was carried out for 14 days.
The above dietary regime was also carried out with Compound B, but the dosages of Compound B employed were 0.1, 0.5 and 1mglkg/day.
The changes of body weight observed were as follows: […]

SMILES | EC50 [1] [nM] | cpm bound [2] | EC50 [3] [nM] | change of body weight (gained) ([4]; 0.05 mg/kg/day oral) [g] | change of body weight (gained) ([4]; 0.1 mg/kg/day oral, Compound A Test) [g] | change of body weight (gained) ([4]; 0.25 mg/kg/day oral) [g] | change of body weight (gained) ([4]; 0.5 mg/kg/day oral, Compound A Test) [g] | change of body weight (lost) ([4]; 0.5 mg/kg/day oral) [g] | change of body weight (lost) ([4]; 1 mg/kg/day oral) [g]
CCCCCCCN(CCc1ccc(OC(C)(C)C(=O)O)cc1)C(=O)Nc1ccc(F)cc1 [Compound A, 2-(4[2-(3-[4-fluorophenyl]-1-heptylureido)ethyl]-phenoxy)-2-methylpropionicacid] | 13 | 18,300 cpm | 545 | 20 | 26.2 | 12.6 | 3.4 | – | –
CCCCCCCN(CCc1ccc(OC(C)(C)C(=O)O)cc1)C(=O)Nc1ccc(F)cc1F [Compound B, 2-(4-[2-(3-[2,4-difluorophenyl]-1-heptylureido)ethyl]-phenoxy)-2-methylpropionic acid] | 25 | 13,000 cpm | 720 | – | – | – | – | 12.3 | 12.4
